In experiment [1] the target is T1, human CYP11B2 (Homo sapiens, UniProt P19099).
T1 construct: expressed in transfected cells
T1 sequence (P19099 25-503): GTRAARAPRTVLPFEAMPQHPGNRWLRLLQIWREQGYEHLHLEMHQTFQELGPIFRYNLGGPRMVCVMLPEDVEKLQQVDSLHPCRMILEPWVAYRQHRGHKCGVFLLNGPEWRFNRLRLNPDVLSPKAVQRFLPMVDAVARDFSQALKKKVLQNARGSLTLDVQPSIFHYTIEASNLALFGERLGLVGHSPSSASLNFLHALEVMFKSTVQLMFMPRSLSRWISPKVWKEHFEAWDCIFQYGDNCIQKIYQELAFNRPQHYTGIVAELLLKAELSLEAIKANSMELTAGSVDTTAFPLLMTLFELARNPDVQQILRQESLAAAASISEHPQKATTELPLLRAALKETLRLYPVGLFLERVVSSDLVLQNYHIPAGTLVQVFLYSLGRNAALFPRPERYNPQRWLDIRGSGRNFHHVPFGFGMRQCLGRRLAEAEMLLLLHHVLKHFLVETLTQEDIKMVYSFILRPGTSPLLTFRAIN
The experiment can be described thus: G-402 cellular enzyme assay, human CYP11B2 (aldosterone release, HTRF). In kind it is cell-based. The settings on record: G-402 cells, 1 μM Deoxycorticosterone. In outline:
(§1)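 G-402 cells stably expressing human CYP11B1 or CYP11B2 incubated 16 h in DMEM/F12 with 2.5% charcoal-treated FCS, compound, and 1 μM 11-deoxycortisol (B1) or 1 μM deoxycorticosterone (B2). Cortisol (B1) or aldosterone (B2) in supernatant measured by HTRF; EC50 from 4-parameter MMF fit.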
For orientation: Time-resolved FRET reads energy transfer from a long-lived donor to a nearby acceptor.

In experiment [2] the target is T2, human CYP11B1 (Homo sapiens, UniProt P15538).
T2 construct: expressed in transfected cells
T2 sequence (P15538 25-503): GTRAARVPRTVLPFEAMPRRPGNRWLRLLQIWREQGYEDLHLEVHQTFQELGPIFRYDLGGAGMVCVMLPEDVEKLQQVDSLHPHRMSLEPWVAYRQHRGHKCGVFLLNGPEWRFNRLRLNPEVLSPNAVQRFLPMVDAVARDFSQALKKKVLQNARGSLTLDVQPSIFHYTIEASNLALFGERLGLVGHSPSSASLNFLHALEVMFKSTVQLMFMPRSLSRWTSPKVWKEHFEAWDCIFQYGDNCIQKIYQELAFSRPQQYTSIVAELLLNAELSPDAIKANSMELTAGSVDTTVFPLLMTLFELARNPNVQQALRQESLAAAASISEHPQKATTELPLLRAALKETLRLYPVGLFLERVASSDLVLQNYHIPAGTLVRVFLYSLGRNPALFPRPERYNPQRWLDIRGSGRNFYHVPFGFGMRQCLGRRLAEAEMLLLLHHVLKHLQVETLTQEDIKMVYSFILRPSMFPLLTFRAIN
The experiment can be described thus: G-402 cellular enzyme assay, human CYP11B1 (cortisol release, HTRF). Type of experiment: cell-based. The settings on record: G-402 cells, 1 μM Deoxycortisol. The gist of the method: as §1

On to `O=C(c1cncc(N2CCc3cc(Cl)ccc3C2=O)c1)N1CCC(F)(F)CC1` [Example 47, 6-Chloro-2-[5-(4,4-difluoro-piperidine-1-carbonyl)-pyridin-3-yl]-3,4-dihydro-2H-isoquinolin-1-one], for which the 50% effective concentration (EC50) – broadly, the concentration that produces a half-maximal response – worked out at 1030 nM in experiment [1] and 23200 nM in experiment [2].

In the case of `CC[C@@H]1c2cc(Cl)ccc2C(=O)N1c1cncc2c1CCC[C@H]2NC(C)=O` (single isomer, unassigned) [Example 358, N-[(R or S)-4-((R or S)-5-Chloro-3-ethyl-1-oxo-1,3-dihydro-isoindol-2-yl)-5,6,7,8-tetrahydro-isoquinolin-8-yl]-acetamide], the figures for the concentration giving a half-maximal response (EC50) in experiment [1] and in experiment [2] were 5 nM and 433 nM, respectively.

In the case of `CCS(=O)(=O)NC1CCCc2c1cncc2N1Cc2cc(Cl)ccc2C1=O` (single isomer, unassigned; (-)) [Example 317, (−)-Ethanesulfonic acid [(S or R)-4-(5-chloro-1-oxo-1,3-dihydro-isoindol-2-yl)-5,6,7,8-tetrahydro-isoquinolin-8-yl]-amide], the concentration for a half-maximal effect (EC50) was determined as 109 nM in experiment [1] and 2640 nM in experiment [2].

`CCC(=O)N[C@H]1CCc2c1cncc2N1C(=O)c2ccc(Cl)cc2[C@H]1C` (single isomer, unassigned) [Example 377, N-[(S or R)-4-((R or S)-5-Chloro-3-methyl-1-oxo-1,3-dihydro-isoindol-2-yl)-6,7-dihydro-5H-[2]pyrindin-7-yl]-propionamide]: the EC50 stood at 3.4 nM in experiment [1] and 448 nM in experiment [2].

For `Cn1nccc1Cc1cncc(N2CCc3cc(Cl)ccc3C2=O)c1` [Example 208, 6-Chloro-2-[5-(2-methyl-2H-pyrazol-3-ylmethyl)-pyridin-3-yl]-3,4-dihydro-2H-isoquinolin-1-one], the results for the EC50 in experiment [1] and in experiment [2] were 2.1 nM and 18.9 nM, respectively.

As for `CC(=O)NC1CCCc2c1cncc2N1Cc2cc(Cl)ccc2C1=O` (single isomer, unassigned) [Example 322, N-[(S or R)-4-(5-Chloro-1-oxo-1,3-dihydro-isoindol-2-yl)-5,6,7,8-tetrahydro-isoquinolin-8-yl]-acetamide], the figures for the EC50 in experiment [1] and in experiment [2] were 5140 nM and 39600 nM, respectively.

In the case of `CCC1c2cc(Cl)ccc2C(=O)N1c1cncc(F)c1` (single isomer, unassigned) [Example 309, (R or S)-5-Chloro-3-ethyl-2-(5-fluoro-pyridin-3-yl)-2,3-dihydro-isoindol-1-one], the EC50 in experiment [1] stood at 16 nM; in experiment [2] it was 2450 nM.

In the case of `CC[C@@H]1c2cc(Cl)ccc2C(=O)N1c1cncc2c1CC[C@H]2NC(C)=O` (single isomer, unassigned) [Example 344, (+)-N—[(R or S)-4-((R or S)-5-Chloro-3-ethyl-1-oxo-1,3-dihydro-isoindol-2-yl)-6,7-dihydro-5H-[2]pyrindin-7-yl]-acetamide], the EC50 in experiment [1] came to 31.2 nM; in experiment [2], 1500 nM.

As to `O=C1c2ccc(Cl)cc2CN1c1cccnc1` [Example 108, 5-Chloro-2-pyridin-3-yl-2,3-dihydro-isoindol-1-one], the figures for the EC50 in experiment [1] and in experiment [2] were 163 nM and 9780 nM, respectively.

`O=C1c2ccc(Cl)cc2CCN1c1cncc(Cn2ccc3cccc(F)c32)c1` [Example 185, 6-Chloro-2-[5-(7-fluoro-indol-1-ylmethyl)-pyridin-3-yl]-3,4-dihydro-2H-isoquinolin-1-one]: the EC50 in experiment [1] is 66 nM; in experiment [2], 673 nM.

For the compound `O=C1c2ccc(Cl)cc2CCN1c1cncc(C(O)C(F)(F)F)c1` (stereo not shown) [Example 18, 6-Chloro-2-[5-(2,2,2-trifluoro-1-hydroxy-ethyl)-pyridin-3-yl]-3,4-dihydro-2H-isoquinolin-1-one], the concentration giving a half-maximal response (EC50) came to 58.6 nM in experiment [1] and 507 nM in experiment [2].

Take `CCc1nccn1Cc1cncc(N2CCc3cc(Cl)ccc3C2=O)c1` [Example 191, 6-Chloro-2-[5-(2-ethyl-imidazol-1-ylmethyl)-pyridin-3-yl]-3,4-dihydro-2H-isoquinolin-1-one]: the figures for the half-maximal effective concentration (EC50) in experiment [1] and in experiment [2] were 394 nM and 8550 nM, respectively.

Regarding `CC1(C)c2cc(Cl)ccc2C(=O)N1c1cncc(CNC(=O)c2cccnc2Cl)c1` [Example 433, 2-Chloro-N-[5-(6-chloro-1,1-dimethyl-3-oxo-1,3-dihydro-isoindol-2-yl)-pyridin-3-ylmethyl]-nicotinamide], the EC50 in experiment [1] was determined as 14.3 nM; in experiment [2], 1310 nM.

Consider `CCC1c2cc(Cl)ccc2C(=O)N1c1cncc(-c2ccnn2C)c1` (single isomer, unassigned) [Example 428, (R or S)-5-Chloro-3-ethyl-2-[5-(2-methyl-2H-pyrazol-3-yl)-pyridin-3-yl]-2,3-dihydro-isoindol-1-one], for which the EC50 turned out to be 20 nM in experiment [1] and 105 nM in experiment [2].

With `Nc1cncc(N2CCc3cc(Cl)ccc3C2=O)c1` [Example 17, 2-(5-Aminopyridin-3-yl)-6-chloro-3,4-dihydro-2H-isoquinolin-1-one], the concentration giving a half-maximal response (EC50) is 597 nM in experiment [1] and 14000 nM in experiment [2].

As for `Cn1ncc(Cl)c1-c1cncc(N2CCc3cc(Cl)ccc3C2=O)c1` [Example 421, 6-Chloro-2-[5-(4-chloro-2-methyl-2H-pyrazol-3-yl)-pyridin-3-yl]-3,4-dihydro-2H-isoquinolin-1-one], the EC50 in experiment [1] was 0.7 nM; in experiment [2] it was 32.4 nM.

Regarding `O=C1c2ccc(Cl)cc2CCN1c1cncc(Cc2cc(F)cc(F)c2)c1` [Example 211, 6-Chloro-2-[5-(3,5-difluoro-benzyl)-pyridin-3-yl]-3,4-dihydro-2H-isoquinolin-1-one], the EC50 in experiment [1] stood at 4.4 nM; in experiment [2], 53.2 nM.

For the compound `CC(C)N1CCN(Cc2cncc(N3CCc4cc(Cl)ccc4C3=O)c2)CC1` [Example 166, 6-Chloro-2-[5-(4-isopropyl-piperazin-1-ylmethyl)-pyridin-3-yl]-3,4-dihydro-2H-isoquinolin-1-one], the concentration for a half-maximal effect (EC50) was determined as 14.1 nM in experiment [1] and 96.3 nM in experiment [2].

In the case of `CCC1c2cc(Cl)ccc2C(=O)N1c1cncc(-c2ccnn2C)c1` (single isomer, unassigned) [Example 429, (S or R)-5-Chloro-3-ethyl-2-[5-(2-methyl-2H-pyrazol-3-yl)-pyridin-3-yl]-2,3-dihydro-isoindol-1-one], the figures for the concentration giving a half-maximal response (EC50) in experiment [1] and in experiment [2] were 4.3 nM and 57.7 nM, respectively.

Regarding `COC(=O)COc1cncc(N2CCc3cc(Cl)ccc3C2=O)c1` [Example 255, [5-(6-Chloro-1-oxo-3,4-dihydro-1H-isoquinolin-2-yl)-pyridin-3-yloxy]-acetic acid methyl ester], the concentration for a half-maximal effect (EC50) was 2800 nM in experiment [1] and 7610 nM in experiment [2].

On to `CCCc1nccn1Cc1cncc(N2CCc3cc(Cl)ccc3C2=O)c1` [Example 161, 6-Chloro-2-[5-(2-propyl-imidazol-1-ylmethyl)-pyridin-3-yl]-3,4-dihydro-2H-isoquinolin-1-one], for which the EC50 in experiment [1] is 101 nM; in experiment [2] it was 341 nM.

Consider `O=C1c2ccc(Cl)cc2CCN1c1cncc(C(O)c2ccc(F)c(F)c2)c1` (stereo not shown) [Example 31, 6-Chloro-2-{5-[(3,4-difluoro-phenyl)-hydroxy-methyl]-pyridin-3-yl}-3,4-dihydro-2H-isoquinolin-1-one], for which the 50% effective concentration (EC50) came out at 50.2 nM in experiment [1] and 328 nM in experiment [2].

For the compound `Cc1nc2ccccc2n1Cc1cncc(N2CCc3cc(Cl)ccc3C2=O)c1` [Example 181, 6-Chloro-2-[5-(2-methyl-benzoimidazol-1-ylmethyl)-pyridin-3-yl]-3,4-dihydro-2H-isoquinolin-1-one], the half-maximal effective concentration (EC50) in experiment [1] was 217 nM; in experiment [2], 1970 nM.

As to `CCC(=O)N1CCN(c2cncc(N3C(=O)c4ccc(Cl)cc4C3(C)C)c2)CC1` [Example 456, 5-Chloro-3,3-dimethyl-2-[5-(4-propionyl-piperazin-1-yl)-pyridin-3-yl]-2,3-dihydro-isoindol-1-one], the EC50 stood at 1.2 nM in experiment [1] and 106 nM in experiment [2].

Consider `Cn1ncc(Cl)c1-c1cncc(N2C(=O)c3ccc(Cl)cc3C2(C)C)c1` [Example 427, 5-Chloro-2-[5-(4-chloro-2-methyl-2H-pyrazol-3-yl)-pyridin-3-yl]-3,3-dimethyl-2,3-dihydro-isoindol-1-one], for which the concentration giving a half-maximal response (EC50) in experiment [1] was 2.4 nM; in experiment [2], 47.2 nM.

Regarding `O=C1c2ccc(Cl)cc2CCN1c1cncc(Cn2ncc3ccccc32)c1` [Example 182, 6-Chloro-2-(5-indazol-1-ylmethyl-pyridin-3-yl)-3,4-dihydro-2H-isoquinolin-1-one], the half-maximal effective concentration (EC50) in experiment [1] is 27.5 nM; in experiment [2], 306 nM.

The values above are taken from patent US9133158B2, “Bicyclic dihydroisoquinoline-1-one derivatives” (Hoffmann-La Roche Inc., priority 2011, dated 2015).
